Where two headings read alike, the source gives them in different places.
Molecular target: T1, STAT6 (Homo sapiens, UniProt P42226)
T1 construct: endogenous in cells; host or cells: MOLM-16, KU-812, SKNO1, MB231, L1236
T1 sequence (P42226 1-847): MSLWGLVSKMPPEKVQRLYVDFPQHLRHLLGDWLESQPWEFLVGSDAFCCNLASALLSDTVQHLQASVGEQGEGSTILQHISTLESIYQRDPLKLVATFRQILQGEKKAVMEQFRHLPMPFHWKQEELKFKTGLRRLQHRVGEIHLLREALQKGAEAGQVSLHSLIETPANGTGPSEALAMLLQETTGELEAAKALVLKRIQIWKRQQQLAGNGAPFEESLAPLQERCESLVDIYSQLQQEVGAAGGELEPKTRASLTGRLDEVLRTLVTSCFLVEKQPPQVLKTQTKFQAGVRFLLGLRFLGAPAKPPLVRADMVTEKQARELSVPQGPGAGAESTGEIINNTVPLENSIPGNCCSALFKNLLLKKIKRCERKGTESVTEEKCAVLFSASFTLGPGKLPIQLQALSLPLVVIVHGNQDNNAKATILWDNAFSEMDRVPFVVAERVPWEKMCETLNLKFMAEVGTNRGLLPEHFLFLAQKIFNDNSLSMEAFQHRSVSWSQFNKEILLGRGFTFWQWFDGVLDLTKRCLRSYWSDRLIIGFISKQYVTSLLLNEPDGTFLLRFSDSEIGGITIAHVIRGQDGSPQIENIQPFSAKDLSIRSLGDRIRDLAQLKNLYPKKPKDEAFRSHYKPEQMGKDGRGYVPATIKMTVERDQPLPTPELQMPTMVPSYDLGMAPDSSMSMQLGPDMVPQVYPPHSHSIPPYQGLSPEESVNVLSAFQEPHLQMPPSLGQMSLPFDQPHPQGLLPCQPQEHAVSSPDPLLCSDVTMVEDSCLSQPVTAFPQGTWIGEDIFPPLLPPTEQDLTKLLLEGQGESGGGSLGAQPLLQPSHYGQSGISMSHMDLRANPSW
Assay: Immunoblotting (Western blot) analysis of STAT6 degradation efficiency of degraders in treated cells
Assay type: cell-based
Summary of the method: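 Cells (~1 million per point) treated with compounds at indicated concentrations and times, lysed in RIPA with protease/phosphatase inhibitors; 20-40 μg protein run on SDS-PAGE and blotted to PVDF. STAT6 or STAT5 rabbit mAbs with GAPDH loading control, IRDye secondaries; near-infrared fluorescence scan, band intensity quantified.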

[1] = L1236 cells, read-out: DC50 S6 L1236
[2] = MOLM-16 cells, class symbols, read-out: DC50 S6 MOLM-16

CC(C)(C)[C@H](NC(=O)c1cc2cc(C(F)(F)P(=O)(O)O)ccc2s1)C(=O)N1C[C@@H](NC(=O)CCCCCC#Cc2cccc3c2CN(C2CCC(=O)NC2=O)C3=O)C[C@H]1C(=O)N1CCO[C@H](c2ccccc2)C1 (stereo partly drawn) [Compound 565, ((2-(((2S)-1-((2S,4S)-4-(8-(2-(2,6-dioxopiperidin-3-yl)-1-oxoisoindolin-4-yl)oct-7-ynamido)-2-((R)-2-phenylmorpholine-4-carbonyl)pyrrolidin-1-yl)-3,3-dimethyl-1-oxobutan-2-yl)carbamoyl)benzo[b]thiophen-5-yl)difluoromethyl)phosphonic acid]
DC50 [1]: > 10 µM
DC50 [2]: > 10 µM

Cc1ncsc1-c1ccc([C@H](C)NC(=O)[C@@H]2C[C@@H](O)CN2C(=O)[C@@H](NC(=O)CCCCCCCNC(=O)CC(=O)N2CCN(C(=O)[C@@H](NC(=O)c3cc4cc(C(F)(F)P(=O)(O)O)ccc4s3)C(C)(C)C)[C@H](C(=O)N3CCC[C@H](c4ccccc4)C3)C2)C(C)(C)C)cc1 [Compound 458, (difluoro(2-(((S)-1-((S)-4-(3-((8-(((S)-1-((2S,4R)-4-hydroxy-2-(((S)-1-(4-(4-methylthiazol-5-yl)phenyl)ethyl)carbamoyl)pyrrolidin-1-yl)-3,3-dimethyl-1-oxobutan-2-yl)amino)-8-oxooctyl)amino)-3-oxopropanoyl)-2-((R)-3-phenylpiperidine-1-carbonyl)piperazin-1-yl)-3,3-dimethyl-1-oxobutan-2-yl)carbamoyl)benzo[b]thiophen-5-yl)methyl)phosphonic acid]
DC50 [1]: > 10 µM
DC50 [2]: > 10 µM

CC(C)(C)[C@H](NC(=O)c1cc2cc(C(F)(F)P(=O)(O)O)ccc2s1)C(=O)N1C[C@@H](NC(=O)CCCC#Cc2ccc3c(c2)CN(C2CCC(=O)NC2=O)C3=O)C[C@H]1C(=O)N1CCO[C@H](c2ccccc2)C1 (stereo partly drawn) [Compound 588, ((2-(((2S)-1-((2S,4S)-4-(6-(2-(2,6-dioxopiperidin-3-yl)-1-oxoisoindolin-5-yl)hex-5-ynamido)-2-((R)-2-phenylmorpholine-4-carbonyl)pyrrolidin-1-yl)-3,3-dimethyl-1-oxobutan-2-yl)carbamoyl)benzo[b]thiophen-5-yl)difluoromethyl)phosphonic acid]
DC50 [1]: > 10 µM
DC50 [2]: > 10 µM

Cc1ncsc1-c1ccc([C@H](C)NC(=O)[C@@H]2C[C@@H](O)CN2C(=O)[C@@H](NC(=O)CCCCCCNC(=O)CC(=O)N2CCN(C(=O)[C@@H](NC(=O)c3cc4cc(C(F)(F)P(=O)(O)O)ccc4s3)C(C)(C)C)[C@H](C(=O)N3CCO[C@H](c4ccccc4)C3)C2)C(C)(C)C)cc1 [Compound 448, (difluoro(2-(((S)-1-((S)-4-(3-((7-(((S)-1-((2S,4R)-4-hydroxy-2-(((S)-1-(4-(4-methylthiazol-5-yl)phenyl)ethyl)carbamoyl)pyrrolidin-1-yl)-3,3-dimethyl-1-oxobutan-2-yl)amino)-7-oxoheptyl)amino)-3-oxopropanoyl)-2-((R)-2-phenylmorpholine-4-carbonyl)piperazin-1-yl)-3,3-dimethyl-1-oxobutan-2-yl)carbamoyl)benzo[b]thiophen-5-yl)methyl)phosphonic acid]
DC50 [1]: > 10 µM
DC50 [2]: > 10 µM

CC(C)(C)[C@H](NC(=O)c1cc2cc(C(F)(F)P(=O)(O)O)ccc2s1)C(=O)N1C[C@@H](OCCCCCC#Cc2cccc3c2CN(C2CCC(=O)NC2=O)C3=O)C[C@H]1C(=O)N1CCC[C@H](c2ccccc2)C1 (stereo partly drawn) [Compound 601, ((2-(((2S)-1-((2S,4S)-4-((7-(2-(2,6-dioxopiperidin-3-yl)-1-oxoisoindolin-4-yl)hept-6-yn-1-yl)oxy)-2-((R)-3-phenylpiperidine-1-carbonyl)pyrrolidin-1-yl)-3,3-dimethyl-1-oxobutan-2-yl)carbamoyl)benzo[b]thiophen-5-yl)difluoromethyl)phosphonic acid]
DC50 (MOLM-16 cells, numeric bound, read-out: DC50 S6 MOLM-16): > 0.3 µM

CC(C)(C)[C@H](NC(=O)c1cc2cc(C(F)(F)P(=O)(O)O)ccc2s1)C(=O)N1Cc2cc(OCC(=O)NCCC#Cc3ccc4c(c3)C(=O)N(C3CCC(=O)NC3=O)C4=O)ccc2C[C@H]1C(=O)N1CCO[C@H](c2ccccc2)C1 (stereo partly drawn) [Compound 538, ((2-(((2S)-1-((3S)-7-(2-((4-(2-(2,6-dioxopiperidin-3-yl)-1,3-dioxoisoindolin-5-yl)but-3-yn-1-yl)amino)-2-oxoethoxy)-3-((R)-2-phenylmorpholine-4-carbonyl)-3,4-dihydroisoquinolin-2(1H)-yl)-3,3-dimethyl-1-oxobutan-2-yl)carbamoyl)benzo[b]thiophen-5-yl)difluoromethyl)phosphonic acid]
DC50 [2]: > 10 µM

CC(C)(C)[C@H](NC(=O)c1cc2cc(C(F)(F)P(=O)(O)O)ccc2s1)C(=O)N1C[C@@H](NC(=O)CCCCCC#Cc2ccc3c(c2)CN(C2CCC(=O)NC2=O)C3=O)C[C@H]1C(=O)N1CCO[C@H](c2ccccc2)C1 (stereo partly drawn) [Compound 566, ((2-(((2S)-1-((2S,4S)-4-(8-(2-(2,6-dioxopiperidin-3-yl)-1-oxoisoindolin-5-yl)oct-7-ynamido)-2-((R)-2-phenylmorpholine-4-carbonyl)pyrrolidin-1-yl)-3,3-dimethyl-1-oxobutan-2-yl)carbamoyl)benzo[b]thiophen-5-yl)difluoromethyl)phosphonic acid]
DC50 [1]: > 10 µM
DC50 [2]: > 10 µM

CC(C)(C)[C@H](NC(=O)c1cc2cc(C(F)(F)P(=O)(O)O)ccc2s1)C(=O)N1C[C@@H](OCC(=O)NCCCCCC#Cc2ccc3c(c2)C(=O)N(C2CCC(=O)NC2=O)C3=O)C[C@H]1C(=O)N1CCC[C@H](c2ccccc2)C1 (stereo partly drawn) [Compound 502, ((2-(((2S)-1-((2S,4S)-4-(2-((7-(2-(2,6-dioxopiperidin-3-yl)-1,3-dioxoisoindolin-5-yl)hept-6-yn-1-yl)amino)-2-oxoethoxy)-2-((R)-3-phenylpiperidine-1-carbonyl)pyrrolidin-1-yl)-3,3-dimethyl-1-oxobutan-2-yl)carbamoyl)benzo[b]thiophen-5-yl)difluoromethyl)phosphonic acid]
DC50 [2]: > 10 µM

Cc1ncsc1-c1ccc(CNC(=O)[C@@H]2C[C@@H](O)CN2C(=O)[C@@H](NC(=O)CCCCCCCCNC(=O)CO[C@@H]2C[C@@H](C(=O)N(C)c3ccc(Br)cc3)N(C(=O)[C@@H](NC(=O)c3cc4cc(C(F)(F)P(=O)(O)O)ccc4s3)C(C)(C)C)C2)C(C)(C)C)cc1 [Compound 420, ((2-(((S)-1-((2S,4R)-2-((4-bromophenyl)(methyl)carbamoyl)-4-(2-((9-(((S)-1-((2S,4R)-4-hydroxy-2-((4-(4-methylthiazol-5-yl)benzyl)carbamoyl)pyrrolidin-1-yl)-3,3-dimethyl-1-oxobutan-2-yl)amino)-9-oxononyl)amino)-2-oxoethoxy)pyrrolidin-1-yl)-3,3-dimethyl-1-oxobutan-2-yl)carbamoyl)benzo[b]thiophen-5-yl)difluoromethyl)phosphonic acid]
DC50 [1]: > 10 µM
DC50 (MB231 cells, read-out: DC50 S6 MB231): > 10 µM

Cc1ncsc1-c1ccc([C@H](C)NC(=O)[C@@H]2C[C@@H](O)CN2C(=O)[C@@H](NC(=O)CCCCNC(=O)CO[C@H]2C[C@@H](C(=O)N3CCO[C@H](c4ccccc4)C3)N(C(=O)[C@@H](NC(=O)c3cc4cc(C(F)(F)P(=O)(O)O)ccc4s3)C(C)(C)C)C2)C(C)(C)C)cc1 [Compound 428, (difluoro(2-(((S)-1-((2S,4S)-4-(2-((5-(((S)-1-((2S,4R)-4-hydroxy-2-(((S)-1-(4-(4-methylthiazol-5-yl)phenyl)ethyl)carbamoyl)pyrrolidin-1-yl)-3,3-dimethyl-1-oxobutan-2-yl)amino)-5-oxopentyl)amino)-2-oxoethoxy)-2-((R)-2-phenylmorpholine-4-carbonyl)pyrrolidin-1-yl)-3,3-dimethyl-1-oxobutan-2-yl)carbamoyl)benzo[b]thiophen-5-yl)methyl)phosphonic acid]
DC50 [1]: > 10 µM
DC50 [2]: > 10 µM

Cc1ncsc1-c1ccc([C@H](C)NC(=O)[C@@H]2C[C@@H](O)CN2C(=O)[C@@H](NC(=O)CNC(=O)COc2ccc3c(c2)CN(C(=O)[C@@H](NC(=O)c2cc4cc(C(F)(F)P(=O)(O)O)ccc4s2)C(C)(C)C)[C@H](C(=O)N2CCO[C@H](c4ccccc4)C2)C3)C(C)(C)C)cc1 [Compound 461, (difluoro(2-(((S)-1-((S)-7-(2-((2-(((S)-1-((2S,4R)-4-hydroxy-2-(((S)-1-(4-(4-methylthiazol-5-yl)phenyl)ethyl)carbamoyl)pyrrolidin-1-yl)-3,3-dimethyl-1-oxobutan-2-yl)amino)-2-oxoethyl)amino)-2-oxoethoxy)-3-((R)-2-phenylmorpholine-4-carbonyl)-3,4-dihydroisoquinolin-2(1H)-yl)-3,3-dimethyl-1-oxobutan-2-yl)carbamoyl)benzo[b]thiophen-5-yl)methyl)phosphonic acid]
DC50 [1]: > 10 µM
DC50 [2]: > 10 µM
